{"source": "patent US20250177566A1", "about": "“USE OF CHEMICAL EPIGENETIC MODIFIERS TO MODULATE GENE EXPRESSION” (The University of North Carolina at Chapel Hill, priority 2022, published 2025)", "key": {"BRD4": {"molecular_target": "T1, BRD4 (Homo sapiens, UniProt O60885+P62942)", "T1 construct": "achieved via the accumulation of endogenous epigenetic machinery at the designed gRNA targeted gene locus; endogenous in cells; host or cells: HCT116 cells stably expressing dCas9 and MS2-FKBP*x2, transfected with CXCR4 or NT gRNA", "T1 sequence (P62942 2-108 limits assumed, other chains not shown)": "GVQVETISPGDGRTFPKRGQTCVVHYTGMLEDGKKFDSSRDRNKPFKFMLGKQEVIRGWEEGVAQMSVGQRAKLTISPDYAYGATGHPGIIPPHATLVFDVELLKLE", "assay": "BRD4 ChIP-seq, HCT116", "type": "cell-based", "from_the_text": "Given that SLF*-CEMa facilitates gene activation via recruitment of BET proteins including BRD4, BRD4 enrichment at a specific targeted gene locus was investigated to further validate the mechanism of CEM207. Based on the alamarBlue cell viability assay performed with HEK293T and HCT116 cells, CEM207 can have different toxicity effects on different cell lines after 4 days of exposure. Specifically, HCT116 appeared to be more tolerant to CEM207 treatment. […] Based on the cell viability data, chromatin immunoprecipitation-qPCR (ChIP-qPCR) was performed in stably infected HCT116 cells. […] The signal change was measured between samples when only CEM207 or gRNA are present and those where both are present. […] To determine outlier significance, a “z-score” distribution was calculated by taking the scaled means of the x- and y-axis values and calculated P values for each point within this distribution. […]\nChIP-seq library preparation. […] Libraries were sequenced to a depth of 30 million […] (75-bp single-end reads) on an Illumina NextSeq 500.\nChIP-seq analyses. Reads from the sequencer were demultiplexed using bcl2fastq (v2.20.0). Sequencing adapters on reads were trimmed using cutadapt (v1.12) using options -a GATCGGAAGAGC (SEQ ID NO: 35) and—minimum-length 36 in […]. […]"}, "CXCR4 protein": {"tested_on": "CXCR4 protein", "assay": "CXCR4 cell membrane protein expression in HCT116 (APC anti-CXCR4 antibody, flow cytometry)", "type": "cell-based, human", "settings": "for fold change, CXCR4 protein (CXCR4 gRNA vs NT gRNA): FIG. 3E, 7B-7D", "protocol": "In addition, the change in CXCR4 protein expression was evaluated following CEM207 treatment at three different concentrations. CEM207 was chosen over CEM203 because of the lower concentration needed to reach a similar peak CXCR4 mRNA activation level. An APC anti-CXCR4 antibody was used to assess cell membrane CXCR4 protein expression via flow cytometry in dCas9 and MS2-FKBP*x2 stably infected HCT116 cells (FIG. 3E and FIGS. 7B-7D). CXCR4 protein levels were determined at 24, 48, and 72 hrs time points for each of the different concentrations of CEM207. […] Based on this protein expression data, it was concluded that the SLF*-CEMa technology can achieve effective gene-specific, dose-dependent activation at the mRNA and protein level."}}, "data": [{"smiles": "CC[C@H](C(=O)N1CCCC[C@H]1C(=O)O[C@H](CCc1ccc(OC)c(OC)c1)c1cccc(OCC(=O)NCCOCCOCCNC(=O)C[C@@H]2N=C(c3ccc(Cl)cc3)c3c(sc(C)c3C)-n3c(C)nnc32)c1)c1cc(OC)c(OC)c(OC)c1", "note": "[CEM207, (R)-1-(3-((14-((S)-4-(4-Chlorophenyl)-2,3,9-trimethyl-6H-thieno[3,2-f][1,2,4]triazolo[4,3-a][1,4]diazepin-6-yl)-2,13-dioxo-6,9-dioxa-3,12-diazatetradecyl)oxy)phenyl)-3-(3,4-dimethoxyphenyl) propyl(S)-1-((S)-2-(3,4,5-trimethoxyphenyl)butanoyl) piperidine-2-carboxylate]", "values": [{"measurement": "BRD4 ChIP-seq signal at the CXCR4 locus", "setting": "BRD4; 25 nM CEM207 + sgCXCR4", "result": "well-defined BRD4 signal peak at the CXCR4 locus"}, {"measurement": "BRD4 peaks having a log2 fold-change in signal less than two in either direction", "setting": "BRD4; off-target assessment, CEM207 or gRNA only vs both present", "result": 96.8, "unit": "%"}, {"measurement": "time after CEM treatment of highest CXCR4 protein expression", "setting": "CXCR4 protein; 24, 48, 72 hrs time points", "result": 48, "unit": "h"}, {"measurement": "fold change, CXCR4 protein (CXCR4 gRNA vs NT gRNA)", "setting": "CXCR4 protein; 24 h time point, 5 nM", "result": 2.4, "unit": "fold"}, {"measurement": "fold change, CXCR4 protein (CXCR4 gRNA vs NT gRNA)", "setting": "CXCR4 protein; 24 h time point, 25 nM", "result": 4.6, "unit": "fold"}, {"measurement": "fold change, CXCR4 protein (CXCR4 gRNA vs NT gRNA)", "setting": "CXCR4 protein; 24 h time point, 50 nM", "result": 4.3, "unit": "fold"}, {"measurement": "fold change, CXCR4 protein (CXCR4 gRNA vs NT gRNA)", "setting": "CXCR4 protein; 48 h time point, 5 nM", "result": 2.4, "unit": "fold"}, {"measurement": "fold change, CXCR4 protein (CXCR4 gRNA vs NT gRNA)", "setting": "CXCR4 protein; 48 h time point, 25 nM", "result": 4.9, "unit": "fold"}, {"measurement": "fold change, CXCR4 protein (CXCR4 gRNA vs NT gRNA)", "setting": "CXCR4 protein; 48 h time point, 50 nM", "result": 5.8, "unit": "fold"}, {"measurement": "fold change, CXCR4 protein (CXCR4 gRNA vs NT gRNA)", "setting": "CXCR4 protein; 72 h time point, 5 nM", "result": 1.7, "unit": "fold"}, {"measurement": "fold change, CXCR4 protein (CXCR4 gRNA vs NT gRNA)", "setting": "CXCR4 protein; 72 h time point, 25 nM", "result": 4.2, "unit": "fold"}, {"measurement": "fold change, CXCR4 protein (CXCR4 gRNA vs NT gRNA)", "setting": "CXCR4 protein; 72 h time point, 50 nM", "result": 3.8, "unit": "fold"}, {"measurement": "concentration of maximum CXCR4 cell membrane protein expression", "setting": "CXCR4 protein; remained the same at 50 nM", "result": 25, "unit": "nM"}]}]}
